In one test the target is Neprilysin (Homo sapiens, UniProt P08473). Put plainly: In vitro inhibitory concentration against neutral endopeptidase.
Test [1] addresses Angiotensin-converting enzyme (Homo sapiens, UniProt P12821). Put plainly: In vitro inhibitory concentration against angiotensin-converting enzyme. In kind it is protein assay.

Chain of Neprilysin (P08473 whole entry): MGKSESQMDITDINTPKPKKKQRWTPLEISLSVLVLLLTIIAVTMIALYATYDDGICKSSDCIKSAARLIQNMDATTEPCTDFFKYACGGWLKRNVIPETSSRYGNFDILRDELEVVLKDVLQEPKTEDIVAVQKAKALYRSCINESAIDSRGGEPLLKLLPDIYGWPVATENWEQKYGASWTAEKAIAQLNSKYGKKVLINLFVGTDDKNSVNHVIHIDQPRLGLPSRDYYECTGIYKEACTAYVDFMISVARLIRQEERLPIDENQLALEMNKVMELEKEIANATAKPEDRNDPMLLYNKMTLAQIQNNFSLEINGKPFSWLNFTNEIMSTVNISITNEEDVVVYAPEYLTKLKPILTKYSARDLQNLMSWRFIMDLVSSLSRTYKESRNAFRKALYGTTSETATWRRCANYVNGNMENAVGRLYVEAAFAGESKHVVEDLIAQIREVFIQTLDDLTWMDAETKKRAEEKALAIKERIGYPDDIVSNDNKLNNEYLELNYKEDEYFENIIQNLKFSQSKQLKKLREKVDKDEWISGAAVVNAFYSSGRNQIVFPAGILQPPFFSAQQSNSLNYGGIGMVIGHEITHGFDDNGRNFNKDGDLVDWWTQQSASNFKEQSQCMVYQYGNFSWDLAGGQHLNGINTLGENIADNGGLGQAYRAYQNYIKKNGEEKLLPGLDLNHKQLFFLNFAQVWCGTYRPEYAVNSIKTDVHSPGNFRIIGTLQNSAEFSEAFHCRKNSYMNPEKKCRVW
Chain of Angiotensin-converting enzyme (P12821 whole entry): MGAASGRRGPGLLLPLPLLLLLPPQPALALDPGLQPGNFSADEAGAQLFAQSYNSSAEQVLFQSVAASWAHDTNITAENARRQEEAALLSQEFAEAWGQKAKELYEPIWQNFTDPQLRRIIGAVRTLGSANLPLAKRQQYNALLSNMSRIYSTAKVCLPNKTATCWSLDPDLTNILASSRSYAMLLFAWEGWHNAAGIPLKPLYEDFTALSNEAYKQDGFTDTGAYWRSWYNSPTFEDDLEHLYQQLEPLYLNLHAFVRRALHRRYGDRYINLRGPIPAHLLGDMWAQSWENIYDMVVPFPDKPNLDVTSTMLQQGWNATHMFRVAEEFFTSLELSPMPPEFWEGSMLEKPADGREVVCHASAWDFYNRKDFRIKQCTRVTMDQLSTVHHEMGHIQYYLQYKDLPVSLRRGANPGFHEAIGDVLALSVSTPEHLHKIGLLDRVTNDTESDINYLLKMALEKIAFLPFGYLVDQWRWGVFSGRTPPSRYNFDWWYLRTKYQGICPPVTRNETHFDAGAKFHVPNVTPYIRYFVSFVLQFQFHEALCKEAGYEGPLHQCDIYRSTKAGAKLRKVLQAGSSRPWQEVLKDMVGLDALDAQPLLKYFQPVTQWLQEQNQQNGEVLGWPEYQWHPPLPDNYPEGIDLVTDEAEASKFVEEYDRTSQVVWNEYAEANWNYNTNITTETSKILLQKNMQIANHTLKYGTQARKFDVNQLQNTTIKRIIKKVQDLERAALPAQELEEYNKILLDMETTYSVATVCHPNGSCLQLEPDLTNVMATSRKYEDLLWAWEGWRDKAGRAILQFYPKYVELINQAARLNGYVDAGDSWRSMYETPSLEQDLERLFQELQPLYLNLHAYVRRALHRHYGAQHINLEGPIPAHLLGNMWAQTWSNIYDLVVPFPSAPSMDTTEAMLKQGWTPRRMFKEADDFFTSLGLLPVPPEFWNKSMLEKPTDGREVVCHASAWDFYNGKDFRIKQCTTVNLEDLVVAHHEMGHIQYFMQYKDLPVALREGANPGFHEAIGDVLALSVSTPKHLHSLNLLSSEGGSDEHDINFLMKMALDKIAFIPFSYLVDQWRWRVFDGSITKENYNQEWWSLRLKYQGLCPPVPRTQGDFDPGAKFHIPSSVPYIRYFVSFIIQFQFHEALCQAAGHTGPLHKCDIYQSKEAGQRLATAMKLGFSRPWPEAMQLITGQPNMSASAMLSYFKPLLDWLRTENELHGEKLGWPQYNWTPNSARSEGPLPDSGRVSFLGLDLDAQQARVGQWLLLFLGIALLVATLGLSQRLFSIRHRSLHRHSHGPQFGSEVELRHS

As usually defined, the IC50 is the point on the concentration scale where inhibition reaches its midpoint. On to `O=C(O)[C@H](Cc1ccc(-c2ccccc2)cc1)NC(=O)[C@H](Cc1cnc[nH]1)NCP(=O)(O)O`, for which the half-inhibitory concentration (IC50) (against Neprilysin; in test [1]) was over 1000 nM throughout.
Regarding `Cc1ccccc1C[C@H](NCP(=O)(O)O)C(=O)N[C@@H](Cc1ccc(-c2ccccc2)cc1)C(=O)O`, the IC50 on Neprilysin was found to be 96 nM; in test [1], 498 nM.
Regarding `O=C(O)[C@H](Cc1ccc(-c2ccccc2)cc1)NC(=O)[C@H](Cc1cccs1)NCP(=O)(O)O`, the IC50 was 73 nM against Neprilysin and 385 nM in test [1].
For `O=C(O)[C@H](Cc1ccc(-c2ccccc2)cc1)NC(=O)[C@@H](NCP(=O)(O)O)C1CCCCC1` the same measures were 34 nM and over 1000 nM.
For `CC(C)[C@H](N[C@@H](C)C(=O)O)C(=O)N[C@@H](Cc1ccc(-c2ccccc2)cc1)C(=O)O` the same measures were 735 nM and 23 nM.
On to `C[C@H](N[C@@H](Cc1ccccc1)C(=O)N[C@@H](Cc1ccc(-c2ccccc2)cc1)C(=O)O)P(=O)(O)O`, for which the IC50 at Neprilysin turned out to be 171 nM; in test [1], 44 nM.
As for `C[C@H](O)[C@H](NCP(=O)(O)O)C(=O)N[C@@H](Cc1ccc(-c2ccccc2)cc1)C(=O)O`, the results for the IC50 (against Neprilysin; in test [1]) were over 1000 nM and 665 nM, respectively.
For `CC(C)[C@H](NCP(=O)(O)O)C(=O)N[C@@H](Cc1ccc(-c2ccccc2)cc1)C(=O)N[C@@H](Cc1ccc(O)cc1)C(=O)O`, in that order: 4 nM and over 1000 nM.
Take `CC[C@H](C)C(NCC(=O)O)C(=O)N[C@@H](Cc1ccc(-c2ccccc2)cc1)C(=O)O` (some centres undefined): the figures for the IC50 (against Neprilysin; in test [1]) were 200 nM and 65 nM, respectively.
On to `O=C(O)[C@H](Cc1ccc(-c2ccccc2)cc1)NC(=O)[C@H](Cc1ccccc1O)NCP(=O)(O)O`, for which the IC50 (on Neprilysin; in test [1]) was over 1000 nM throughout.
As to `O=C(O)[C@H](Cc1ccc(-c2ccccc2)cc1)NC(=O)[C@H](Cc1ccc(O)cc1)NCP(=O)(O)O`, the IC50 was 226 nM on Neprilysin and over 1000 nM in test [1].
For `CC[C@@H](C)[C@H](NCP(=O)(O)O)C(=O)N[C@@H](Cc1ccc(-c2ccccc2)cc1)C(=O)O`, in that order: 2 nM and 50 nM.
On to `CC(C)[C@H](NCP(=O)(O)O)C(=O)N[C@@H](Cc1ccc(-c2ccccc2)cc1)C(=O)O`, for which the IC50 against Neprilysin was determined as 3 nM; in test [1], 25 nM.
For `COc1ccccc1C[C@H](NCP(=O)(O)O)C(=O)N[C@@H](Cc1ccc(-c2ccccc2)cc1)C(=O)O` the same measures were over 1000 nM and 160 nM.
For the compound `C[C@H](OCc1ccccc1)[C@H](NCP(=O)(O)O)C(=O)N[C@@H](Cc1ccc(-c2ccccc2)cc1)C(=O)O`, the IC50 against Neprilysin was over 1000 nM; in test [1], 656 nM.
For `CC(C)Oc1ccc(C[C@H](NC(=O)[C@@H](NCP(=O)(O)O)C(C)C)C(=O)O)cc1`, in that order: 9 nM and 92 nM.
As to `O=C(O)[C@H](Cc1ccc(-c2ccccc2)cc1)NC(=O)[C@H](Cc1ccccc1)NCP(=O)(O)O`, the IC50 against Neprilysin was found to be 35 nM; in test [1], 117 nM.
As to `C[C@H](c1ccccc1)[C@H](NCP(=O)(O)O)C(=O)N[C@@H](Cc1ccc(-c2ccccc2)cc1)C(=O)O`, the IC50 was 47 nM against Neprilysin and 138 nM in test [1].
In the case of `CC[C@H](C)C(N[C@@H](C)C(=O)O)C(=O)N[C@@H](Cc1ccc(-c2ccccc2)cc1)C(=O)O` (some centres undefined), the IC50 was 165 nM at Neprilysin and 22 nM in test [1].
For `CC(C)[C@H](NCP(=O)(O)O)C(=O)N[C@@H](Cc1ccc(-c2ccccc2)cc1)C(=O)N1C[C@H](O)C[C@H]1C(=O)O`, in that order: 12 nM and over 1000 nM.
`CC(C)C[C@H](NCP(=O)(O)O)C(=O)N[C@@H](Cc1ccc(-c2ccccc2)cc1)C(=O)O`: the figures for the half-inhibitory concentration (IC50) (against Neprilysin; in test [1]) were 356 nM and over 1000 nM, respectively.
For `CC(C)[C@H](NCP(=O)(O)O)C(=O)N[C@@H](Cc1c[nH]c2ccccc12)C(=O)O`, in that order: 9 nM and 240 nM.
For `C[C@H](NCP(=O)(O)O)C(=O)N[C@@H](Cc1ccc(-c2ccccc2)cc1)C(=O)O` the same measures were 1000 nM and 660 nM.
As for `O=C(O)[C@H](Cc1ccc(-c2ccccc2)cc1)NC(=O)[C@H](Cc1ccc2ccccc2c1)NCP(=O)(O)O`, the IC50 at Neprilysin stood at 282 nM; in test [1] it was 53 nM.
For `O=C(O)[C@H](Cc1ccc(-c2ccccc2)cc1)NC(=O)[C@H](Cc1ccc(-c2ccccc2)cc1)NCP(=O)(O)O`, in that order: 20 nM and 414 nM.
For `CCCC[C@H](NCP(=O)(O)O)C(=O)N[C@@H](Cc1ccc(-c2ccccc2)cc1)C(=O)O` the same measures were 37 nM and 731 nM.
For `O=C(O)[C@H](Cc1ccc(-c2ccccc2)cc1)NC(=O)[C@H](Cc1ccc(Cl)cc1)NCP(=O)(O)O` the same measures were 338 nM and 473 nM.
`CC(C)[C@H](NCP(=O)(O)O)C(=O)N[C@@H](Cc1ccc(C2CCCCC2)cc1)C(=O)O`: the results for the 50% inhibitory concentration (IC50) (at Neprilysin; in test [1]) were 35 nM and 122 nM, respectively.
In the case of `O=C(O)[C@H](Cc1ccc(-c2ccccc2)cc1)NC(=O)[C@H](Cc1ccc2c(c1)OCO2)NCP(=O)(O)O`, the 50% inhibitory concentration (IC50) is 48 nM on Neprilysin and 147 nM in test [1].
For `CC(C)(C)[C@H](NCP(=O)(O)O)C(=O)N[C@@H](Cc1ccc(-c2ccccc2)cc1)C(=O)O` the same measures were over 1000 nM and over 1000 nM.
As to `O=C(O)[C@H](Cc1ccc(-c2ccccc2)cc1)NC(=O)C1(NCP(=O)(O)O)CCCC1`, the IC50 (at Neprilysin; in test [1]) was over 1000 nM in each case.
As to `CC(C)[C@H](NCP(=O)(O)O)C(=O)N[C@@H](CCc1ccccc1)C(=O)O`, the IC50 on Neprilysin was 26 nM; in test [1], 100 nM.

Source of the values: ChEMBL document CHEMBL1150039, “Dual inhibition of neutral endopeptidase and angiotensin-converting enzyme by N-phosphonomethyl and N-carboxyalkyl dipeptides” (Bioorg Med Chem Lett, 1994).
